Biological target: truncated PI3Kα (p110α/iSH2 p85α) (Homo sapiens (Human), UniProt P42336)
Assay: PI3KA_Act fluorescence polarization kinase assay (Ki)
Type: biochemical
Conditions: 1 mM ATP
How it was run: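 p110α/iSH2 p85α (0.5 nM) was reacted with 30 μM sonicated PIP2 in 50 mM HEPES pH 7.4, 150 mM NaCl, 5 mM MgCl2, 1 mM DTT and 0.05% CHAPS for 30 min at room temperature, then stopped with EDTA. PIP3 was detected by fluorescence polarization (GST-Grp1 PH domain/TAMRA-PIP3), and Ki came from a Morrison tight-binding fit.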

Sequence of truncated PI3Kα (p110α/iSH2 p85α) (P42336 whole entry, the tested form may be a part): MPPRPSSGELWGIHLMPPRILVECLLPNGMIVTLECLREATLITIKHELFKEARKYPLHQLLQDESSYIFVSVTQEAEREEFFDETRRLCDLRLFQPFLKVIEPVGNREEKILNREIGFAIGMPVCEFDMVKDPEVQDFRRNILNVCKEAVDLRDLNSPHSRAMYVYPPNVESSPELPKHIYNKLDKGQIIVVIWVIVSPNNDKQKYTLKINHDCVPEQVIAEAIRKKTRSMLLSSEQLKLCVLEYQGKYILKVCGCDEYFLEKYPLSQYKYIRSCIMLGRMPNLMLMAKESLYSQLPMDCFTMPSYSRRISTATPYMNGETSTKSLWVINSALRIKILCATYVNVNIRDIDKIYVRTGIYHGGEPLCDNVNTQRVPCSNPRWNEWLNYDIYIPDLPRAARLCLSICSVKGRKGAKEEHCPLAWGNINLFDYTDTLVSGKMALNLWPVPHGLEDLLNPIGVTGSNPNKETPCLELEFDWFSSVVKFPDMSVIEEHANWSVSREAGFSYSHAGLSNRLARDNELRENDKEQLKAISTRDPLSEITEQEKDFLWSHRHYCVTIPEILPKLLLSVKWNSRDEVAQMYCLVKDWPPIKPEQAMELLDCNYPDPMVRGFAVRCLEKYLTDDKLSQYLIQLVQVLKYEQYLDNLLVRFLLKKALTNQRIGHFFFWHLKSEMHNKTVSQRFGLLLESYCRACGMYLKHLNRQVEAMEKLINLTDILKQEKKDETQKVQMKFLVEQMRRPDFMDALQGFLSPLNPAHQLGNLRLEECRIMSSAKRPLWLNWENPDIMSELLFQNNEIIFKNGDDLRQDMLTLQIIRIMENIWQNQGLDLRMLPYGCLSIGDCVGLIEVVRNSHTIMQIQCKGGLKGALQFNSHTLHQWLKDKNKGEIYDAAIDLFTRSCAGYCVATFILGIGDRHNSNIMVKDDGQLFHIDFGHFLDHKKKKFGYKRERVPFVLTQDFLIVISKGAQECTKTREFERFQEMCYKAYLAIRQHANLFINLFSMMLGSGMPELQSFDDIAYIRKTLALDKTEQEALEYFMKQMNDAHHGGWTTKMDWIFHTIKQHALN

Row | SMILES | PI3KA_Act Ki [nM]
1 | C[C@H]1COCCN1c1nc(-c2cnc(N)nc2)c2c(n1)N(C1(C)CN(C(=O)C(C)(C)O)C1)CC2 [Example 455, 1-(3-{4-(2-aminopyrimidin-5-yl)-2-[(3S)-3-methylmorpholin-4-yl]-5,6-dihydro-7H-pyrrolo[2,3-d]pyrimidin-7-yl}-3-methylazetidin-1-yl)-2-hydroxy-2-methylpropan-1-one] | 0.187
2 | C[C@H]1COCCN1c1nc(-c2cnc(N)nc2)c2c(n1)N(C1(C)CN(C(=O)C(C)(C)N)C1)CC2.Cl [Example 456, 2-amino-1-(3-{4-(2-aminopyrimidin-5-yl)-2-[(3S)-3-methylmorpholin-4-yl]-5,6-dihydro-7H-pyrrolo[2,3-d]pyrimidin-7-yl}-3-methylazetidin-1-yl)-2-methylpropan-1-one hydrochloride] | 0.063
3 | CCC(=O)NCC(=O)N1CC(N2CCc3c(-c4cnc(N)nc4)nc(N4CCOC[C@@H]4C)nc32)C1 [Example 457, N-[2-(3-{4-(2-aminopyrimidin-5-yl)-2-[(3S)-3-methylmorpholin-4-yl]-5,6-dihydro-7H-pyrrolo[2,3-d]pyrimidin-7-yl}azetidin-1-yl)-2-oxoethyl]propanamide] | 0.691
4 | C[C@H]1COCCN1c1nc(-c2cnc(N)nc2)c2c(n1)N(C1CN(C(=O)C3(C)CC3)C1)CC2 [Example 458, (3-{4-(2-aminopyrimidin-5-yl)-2-[(3S)-3-methylmorpholin-4-yl]-5,6-dihydro-7H-pyrrolo[2,3-d]pyrimidin-7-yl}azetidin-1-yl)(1-methylcyclopropyl)methanone] | 0.159
5 | C[C@H]1COCCN1c1nc(-c2cnc(N)nc2)c2c(n1)N(C1(C)CN(C(=O)C3(C)CC3)C1)CC2 [Example 459, (3-{4-(2-aminopyrimidin-5-yl)-2-[(3S)-3-methylmorpholin-4-yl]-5,6-dihydro-7H-pyrrolo[2,3-d]pyrimidin-7-yl}-3-methylazetidin-1-yl)(1-methylcyclopropyl)methanone] | 0.057
6 | COC(=O)N1CC(C)(N2CCc3c(-c4cnc(N)nc4)nc(N4CCOC[C@@H]4C)nc32)C1 [Example 460, methyl 3-{4-(2-aminopyrimidin-5-yl)-2-[(3S)-3-methylmorpholin-4-yl]-5,6-dihydro-7H-pyrrolo[2,3-d]pyrimidin-7-yl}-3-methylazetidine-1-carboxylate] | 0.047
7 | C[C@H]1COCCN1c1nc(-c2cnc(N)nc2)c2c(n1)N(C1(C)CN(C(=O)OC(C)(C)C)C1)CC2 [Example 461, tert-butyl 3-{4-(2-aminopyrimidin-5-yl)-2-[(3S)-3-methylmorpholin-4-yl]-5,6-dihydro-7H-pyrrolo[2,3-d]pyrimidin-7-yl}-3-methylazetidine-1-carboxylate] | 0.040
8 | CNC(=O)N1CC(C)(N2CCc3c(-c4cnc(N)nc4)nc(N4CCOC[C@@H]4C)nc32)C1 [Example 462, 3-{4-(2-aminopyrimidin-5-yl)-2-[(3S)-3-methylmorpholin-4-yl]-5,6-dihydro-7H-pyrrolo[2,3-d]pyrimidin-7-yl}-N,3-dimethylazetidine-1-carboxamide] | 0.057
9 | C[C@H]1COCCN1c1nc(-c2cnc(N)nc2)c2c(n1)N(C1CN(S(=O)(=O)C3CCC3)C1)CC2 [Example 463, 5-{7-[1-(cyclobutylsulfonyl)azetidin-3-yl]-2-[(3S)-3-methylmorpholin-4-yl]-6,7-dihydro-5H-pyrrolo[2,3-d]pyrimidin-4-yl}pyrimidin-2-amine] | 0.169
10 | C[C@H]1COCCN1c1nc(-c2cnc(N)nc2)c2c(n1)N(C1CN(S(=O)(=O)N3CCC3)C1)CC2 [Example 464, 5-{7-[1-(azetidin-1-ylsulfonyl)azetidin-3-yl]-2-[(3S)-3-methylmorpholin-4-yl]-6,7-dihydro-5H-pyrrolo[2,3-d]pyrimidin-4-yl}pyrimidin-2-amine] | 0.193
11 | C[C@H]1COCCN1c1nc(-c2cnc(N)nc2)c2c(n1)N([C@@]1(C)CCNC1)CC2.Cl [Example 465, 5-{2-[(3S)-3-methylmorpholin-4-yl]-7-[(3S)-3-methylpyrrolidin-3-yl]-6,7-dihydro-5H-pyrrolo[2,3-d]pyrimidin-4-yl}pyrimidin-2-amine hydrochloride] | 0.160
12 | C[C@H]1COCCN1c1nc(-c2cnc(N)nc2)c2c(n1)N([C@]1(C)CCNC1)CC2.Cl [Example 466, 5-{2-[(3S)-3-methylmorpholin-4-yl]-7-[(3R)-3-methylpyrrolidin-3-yl]-6,7-dihydro-5H-pyrrolo[2,3-d]pyrimidin-4-yl}pyrimidin-2-amine hydrochloride] | 0.303
13 | C[C@@H]1CNC[C@@]1(C)N1CCc2c(-c3cnc(N)nc3)nc(N3CCOC[C@@H]3C)nc21.Cl [Example 467, 5-{7-[(3S,4R)-3,4-dimethylpyrrolidin-3-yl]-2-[(3S)-3-methylmorpholin-4-yl]-6,7-dihydro-5H-pyrrolo[2,3-d]pyrimidin-4-yl}pyrimidin-2-amine hydrochloride] | 0.106
14 | C[C@H]1COCCN1c1nc(-c2cnc(N)nc2)c2c(n1)N([C@@]1(C)CNC[C@@H]1C)CC2.Cl [Example 468, 5-{7-[(3R,4S)-3,4-dimethylpyrrolidin-3-yl]-2-[(3S)-3-methylmorpholin-4-yl]-6,7-dihydro-5H-pyrrolo[2,3-d]pyrimidin-4-yl}pyrimidin-2-amine hydrochloride] | 0.634
15 | CC(=O)N1CC[C@](C)(N2CCc3c(-c4cnc(N)nc4)nc(N4CCOC[C@@H]4C)nc32)C1 [Example 469, 1-[(3S)-3-{4-(2-aminopyrimidin-5-yl)-2-[(3S)-3-methylmorpholin-4-yl]-5,6-dihydro-7H-pyrrolo[2,3-d]pyrimidin-7-yl}-3-methylpyrrolidin-1-yl]ethanone] | 0.052
16 | CC(=O)N1CC[C@@](C)(N2CCc3c(-c4cnc(N)nc4)nc(N4CCOC[C@@H]4C)nc32)C1 [Example 470, 1-[(3R)-3-{4-(2-aminopyrimidin-5-yl)-2-[(3S)-3-methylmorpholin-4-yl]-5,6-dihydro-7H-pyrrolo[2,3-d]pyrimidin-7-yl}-3-methylpyrrolidin-1-yl]ethanone] | 0.070
17 | C[C@@H](O)C(=O)N1CC[C@](C)(N2CCc3c(-c4cnc(N)nc4)nc(N4CCOC[C@@H]4C)nc32)C1 [Example 471, (2R)-1-[(3S)-3-{4-(2-aminopyrimidin-5-yl)-2-[(3S)-3-methylmorpholin-4-yl]-5,6-dihydro-7H-pyrrolo[2,3-d]pyrimidin-7-yl}-3-methylpyrrolidin-1-yl]-2-hydroxypropan-1-one] | 0.037
18 | CC(C)[C@@H](O)C(=O)N1CC[C@](C)(N2CCc3c(-c4cnc(N)nc4)nc(N4CCOC[C@@H]4C)nc32)C1 [Example 472, (2R)-1-[(3S)-3-{4-(2-aminopyrimidin-5-yl)-2-[(3S)-3-methylmorpholin-4-yl]-5,6-dihydro-7H-pyrrolo[2,3-d]pyrimidin-7-yl}-3-methylpyrrolidin-1-yl]-2-hydroxy-3-methylbutan-1-one] | 0.044
19 | C[C@H]1COCCN1c1nc(-c2cnc(N)nc2)c2c(n1)N([C@@]1(C)CCN(C(=O)C(C)(C)O)C1)CC2 [Example 473, 1-[(3S)-3-{4-(2-aminopyrimidin-5-yl)-2-[(3S)-3-methylmorpholin-4-yl]-5,6-dihydro-7H-pyrrolo[2,3-d]pyrimidin-7-yl}-3-methylpyrrolidin-1-yl]-2-hydroxy-2-methylpropan-1-one] | 0.076
20 | C[C@H]1COCCN1c1nc(-c2cnc(N)nc2)c2c(n1)N([C@@]1(C)CCN(C(=O)C(C)(C)CO)C1)CC2.Cl [Example 474, 1-[(3S)-3-{4-(2-aminopyrimidin-5-yl)-2-[(3S)-3-methylmorpholin-4-yl]-5,6-dihydro-7H-pyrrolo[2,3-d]pyrimidin-7-yl}-3-methylpyrrolidin-1-yl]-3-hydroxy-2,2-dimethylpropan-1-one hydrochloride] | 0.045
21 | C[C@H](N)C(=O)N1CC[C@](C)(N2CCc3c(-c4cnc(N)nc4)nc(N4CCOC[C@@H]4C)nc32)C1.Cl [Example 475, (2S)-2-amino-1-[(3S)-3-{4-(2-aminopyrimidin-5-yl)-2-[(3S)-3-methylmorpholin-4-yl]-5,6-dihydro-7H-pyrrolo[2,3-d]pyrimidin-7-yl}-3-methylpyrrolidin-1-yl]propan-1-one hydrochloride] | 0.068
22 | C[C@@H](N)C(=O)N1CC[C@](C)(N2CCc3c(-c4cnc(N)nc4)nc(N4CCOC[C@@H]4C)nc32)C1.Cl [Example 476, (2R)-2-amino-1-[(3S)-3-{4-(2-aminopyrimidin-5-yl)-2-[(3S)-3-methylmorpholin-4-yl]-5,6-dihydro-7H-pyrrolo[2,3-d]pyrimidin-7-yl}-3-methylpyrrolidin-1-yl]propan-1-one hydrochloride] | <0.018
23 | CC[C@H](N)C(=O)N1CC[C@](C)(N2CCc3c(-c4cnc(N)nc4)nc(N4CCOC[C@@H]4C)nc32)C1.Cl [Example 477, (2S)-2-amino-1-[(3S)-3-{4-(2-aminopyrimidin-5-yl)-2-[(3S)-3-methylmorpholin-4-yl]-5,6-dihydro-7H-pyrrolo[2,3-d]pyrimidin-7-yl}-3-methylpyrrolidin-1-yl]butan-1-one hydrochloride] | 0.038
24 | CC[C@@H](N)C(=O)N1CC[C@](C)(N2CCc3c(-c4cnc(N)nc4)nc(N4CCOC[C@@H]4C)nc32)C1.Cl [Example 478, (2R)-2-amino-1-[(3S)-3-{4-(2-aminopyrimidin-5-yl)-2-[(3S)-3-methylmorpholin-4-yl]-5,6-dihydro-7H-pyrrolo[2,3-d]pyrimidin-7-yl}-3-methylpyrrolidin-1-yl]butan-1-one hydrochloride] | 0.026
